{
  "source": "patent US20250231185A1",
  "about": "“Coronavirus T Cell Epitopes, Megapools and Uses Thereof” (La Jolla Institute for Immunology, priority 2021, published 2025)",
  "data": [
    {"test_system": "CD4+ T cells", "test": "Meta-analysis of published SARS-CoV-2 CD4 T cell epitope data curated in the IEDB (25 studies)", "format": "cell-based, human", "details": "CD4R (D) Megapool, non-spike antigens; dominant = recognized in 3 or more donors/studies", "values": [
      {"substance": "2294 (SELVIGAVILRGHLR) [compound 2294]", "Dominant": "Yes (more dominant epitopes are defined by being recognized by 3 or more donors/different studies)"},
      {"substance": "2331 (GTWLTYTGAIKLDDK) [compound 2331]", "Dominant": "Yes (more dominant epitopes are defined by being recognized by 3 or more donors/different studies)"},
      {"substance": "2297 (RGHLRIAGHHLGRCD) [compound 2297]", "Dominant": "Yes (more dominant epitopes are defined by being recognized by 3 or more donors/different studies)"},
      {"substance": "2301 (KEITVATSRTLSYYK) [compound 2301]", "Dominant": "Yes (more dominant epitopes are defined by being recognized by 3 or more donors/different studies)"},
      {"substance": "2307 (SGFAAYSRYRIGNYK) [compound 2307]", "Dominant": "Yes (more dominant epitopes are defined by being recognized by 3 or more donors/different studies)"},
      {"substance": "2326 (YKHWPQIAQFAPSAS) [compound 2326]", "Dominant": "Yes (more dominant epitopes are defined by being recognized by 3 or more donors/different studies)"},
      {"substance": "2310 (DDQIGYYRRATRRIR) [compound 2310]", "Dominant": "Yes (more dominant epitopes are defined by being recognized by 3 or more donors/different studies)"},
      {"substance": "2288 (QFAYANRNRFLYIIK) [compound 2288]", "Dominant": "Yes (more dominant epitopes are defined by being recognized by 3 or more donors/different studies)"},
      {"substance": "2308 (ASWFTALTQHGKEDL) [compound 2308]", "Dominant": "Yes (more dominant epitopes are defined by being recognized by 3 or more donors/different studies)"},
      {"substance": "2314 (RWYFYYLGTGPEAGL) [compound 2314]", "Dominant": "Yes (more dominant epitopes are defined by being recognized by 3 or more donors/different studies)"},
      {"substance": "2287 (FYVYSRVKNLNSSRV) [compound 2287]", "Dominant": "Yes (more dominant epitopes are defined by being recognized by 3 or more donors/different studies)"},
      {"substance": "2320 (LLLLDRLNQLESKMS) [compound 2320]", "Dominant": "Yes (more dominant epitopes are defined by being recognized by 3 or more donors/different studies)"},
      {"substance": "2323 (KRTATKAYNVTQAFG) [compound 2323]", "Dominant": "Yes (more dominant epitopes are defined by being recognized by 3 or more donors/different studies)"},
      {"substance": "2289 (VLAAVYRINWITGGI) [compound 2289]", "Dominant": "Yes (more dominant epitopes are defined by being recognized by 3 or more donors/different studies)"},
      {"substance": "2328 (ASAFFGMSRIGMEVT) [compound 2328]", "Dominant": "Yes (more dominant epitopes are defined by being recognized by 3 or more donors/different studies)"},
      {"substance": "2311 (IGYYRRATRRIRGGD) [compound 2311]", "Dominant": "Yes (more dominant epitopes are defined by being recognized by 3 or more donors/different studies)"}
    ]},
    {"test_system": "CD4+ T cells", "test": "Meta-analysis of published SARS-CoV-2 CD4 T cell epitope data curated in the IEDB (25 studies)", "format": "cell-based, human", "details": "CD4RE megapool peptides (non-spike SARS-CoV-2 CD4 epitopes); dominant = recognized by 3 or more donors/different studies", "values": [
      {"substance": "2624 (GAVILRGHLRIAGHHLGR) [compound 2624]", "Dominant": "Yes (more dominant epitopes are defined by being recognized by 3 or more donors/different studies)"},
      {"substance": "2651 (KKPRQKRTATKAYNV) [compound 2651]", "Dominant": "Yes (more dominant epitopes are defined by being recognized by 3 or more donors/different studies)"},
      {"substance": "2652 (KRTATKAYNVTQAFG) [compound 2652]", "Dominant": "Yes (more dominant epitopes are defined by being recognized by 3 or more donors/different studies)"},
      {"substance": "2659 (PSGTWLTYTGAIKLD) [compound 2659]", "Dominant": "Yes (more dominant epitopes are defined by being recognized by 3 or more donors/different studies)"},
      {"substance": "2646 (AIVLQLPQGTTLPKG) [compound 2646]", "Dominant": "Yes (more dominant epitopes are defined by being recognized by 3 or more donors/different studies)"},
      {"substance": "2640 (IGYYRRATRRIRGGD) [compound 2640]", "Dominant": "Yes (more dominant epitopes are defined by being recognized by 3 or more donors/different studies)"},
      {"substance": "2647 (AGNGGDAALALLLLD) [compound 2647]", "Dominant": "Yes (more dominant epitopes are defined by being recognized by 3 or more donors/different studies)"},
      {"substance": "2627 (IAGHHLGRCDIKDLP) [compound 2627]", "Dominant": "Yes (more dominant epitopes are defined by being recognized by 3 or more donors/different studies)"},
      {"substance": "2660 (GTWLTYTGAIKLDDK) [compound 2660]", "Dominant": "Yes (more dominant epitopes are defined by being recognized by 3 or more donors/different studies)"}
    ]}
  ]
}
